Assay results from patent publication US4237311A, “2-Methyl-1-(substituted)phenyl-2-propyl esters of 2-aminopropanoic acid” (priority 1974, dated 1980).

What was measured:
[1] = system: 5-HTP response; assay: 5-HTP response potentiation test; format: in vivo, mice; settings: for minimal effective dose: Mus musculus, ip, test drug one hour (or 4, 24 hours) before dl-5-HTP 90 mg/kg i.v., mice, read-out: Potentiation of 5-HTP, effective dose (least dose producing maximal score +3 in all animals)
Description: 1. 5-HTP response potentiation test
Inhibition of the uptake of 5-HT potentiates the effects of administered 5-hydroxytryptophan (5-HTP) probably by increasing the amount of 5-HT at the receptor. […] The strength of the syndrome is scored from 0 to +3.

[2] = system: 5-HT uptake (5-hydroxytryptamine); assay: Inhibition of the uptake of 14C-5-HT (drug given i.p. in vivo, uptake in midbrain slices); parameters: species or system mice; settings: ip, 0.5 h, half an hour before killing, mouse midbrain slices, 5-HT 1×10^-7 M, 5 min incubation, read-out: Inhibition (50%) of uptake in vivo, 5-HT (ED50)
Protocol: (§1) 1. Inhibition of the uptake of carbon-14 5-HT and tritiated noradrenaline in vitro and in vivo
The method is described by Ross, Renyi and Ogren in European Journal of Pharmacology 17 (1972), 107-112. […] The drugs were administered intraperitoneally half an hour before the animals were killed and the midbrain was taken out and sliced and incubated in a mixture consisting of, per 100 mg of brain slices, 0.2 n-mole of ^14 C--5--HT, 0.2 n-mole of ^3 H--NA and 11 μmole of glucose in 2 ml of Krebs-Henseleit buffer, pH 7.4. The incubation time was 5 minutes. The radioactive amines taken up in the slices were dissolved in Soluene-350®(Packard) and the amounts were determined with the double labelling technique by liquid scintillation. The dose producing 50 percent decrease of the active uptake (ED50) was determined graphically from dose response curves. Active uptake is defined as that part of the radioactive uptake which is inhibited by a high concentration of cocaine. All doses were given at least to four animals.

[3] = system: NA uptake (noradrenaline); assay: Inhibition of the uptake of tritiated noradrenaline (drug given i.p. in vivo, uptake in midbrain slices); parameters: species or system mice; settings: ip, 0.5 h, half an hour before killing, mouse midbrain slices, noradrenaline 1×10^-7 M, 5 min incubation, read-out: Inhibition (50%) of uptake in vivo, NA (ED50)
Protocol: as §1
The drugs were administered intraperitoneally half an hour before the animals were killed and the midbrain was taken out and sliced and incubated in a mixture consisting of, per 100 mg of brain slices, 0.2 n-mole of ^14 C--5--HT, 0.2 n-mole of ^3 H--NA and 11 μmole of glucose in 2 ml of Krebs-Henseleit buffer, pH 7.4. The incubation time was 5 minutes. The radioactive amines taken up in the slices were dissolved in Soluene-350®(Packard) and the amounts were determined with the double labelling technique by liquid scintillation. The dose producing 50 percent decrease of the active uptake (ED50) was determined graphically from dose response curves. Active uptake is defined as that part of the radioactive uptake which is inhibited by a high concentration of cocaine. All doses were given at least to four animals.

[4] = system: man; settings: cited from earlier work
[5] = system: male rats; assay: Drug induced arrhythmias in rats; format: in vivo; settings: male rats anesthetized with Nembutal, stepwise increased doses
Description: DRUG INDUCED ARRHYTHMIAS IN RATS
Test drugs were intravenously administered to male rats anesthetized with Nembutal®. The doses were increased stepwise up to the lethal dose and the first dose which induced arrhythmia was noted.

[6] = system: 5-hydroxytryptamine (5-HT) re-uptake mechanism; settings: central nervous system; cited from earlier work
[7] = system: noradrenaline (NA) re-uptake mechanism; settings: central nervous system; cited from earlier work
[8] = in vivo; settings: mouse, iv, mice, killing 50% within 7 days, read-out: Acute toxicity LD50
Protocol: ACUTE TOXICITY, BEHAVIOUR AND ANTICHOLINERGIC STUDY IN MICE
The compounds were given by intravenous route to 6 mice. LD50 is the dose which kills 50% of the animals within 7 days. Seizures, gait, sedation and gripstrength were recorded.

Row | Structure (SMILES) | minimal effective dose [1] [mg/kg] | ED50 [2] [mg/kg] | ED50 [3] [mg/kg] | anticholinergic effect and symptoms (in words) [4] | mood and psychomotor effect (in words) [4] | onset of the antidepressive effect ([4]; treatment with imipramine) | Arrhythmia, accumulated i.v. dose where there are signs of arrhythmia [5] [mg/kg] | inhibition of the re-uptake mechanism of 5-hydroxytryptamine (in words) [6] | inhibition of the re-uptake mechanism of noradrenaline (in words) [7] | potentiation of dl-5-HTP by the reference drug (in words) ([1]; control groups, reference) | LD50 at 168 h [8] [mg/kg]
1 | CC(N)C(=O)OC(C)(C)Cc1ccccc1 (centres unmarked) [GEA 916] | 8 | 15 | > 40 |  |  |  |  |  |  |  | 
2 | CC(N)C(=O)OC(C)(C)Cc1cccc(Cl)c1 (centres unmarked) [GEA 935] | 3 | 5 | > 40 |  |  |  |  |  |  |  | 
3 | Cc1ccc(CC(C)(C)OC(=O)C(C)N)cc1 (centres unmarked) [GEA 937] | 12 | 10 | > 40 |  |  |  |  |  |  |  | 
4 | CC(N)C(=O)OC(C)(C)Cc1ccc(Cl)c(Cl)c1 (centres unmarked) [GEA 699] | 7 | 15 | > 40 |  |  |  |  |  |  |  | 
5 | CC(N)C(=O)OC(C)(C)Cc1ccc(Br)cc1 (centres unmarked) [GEA 917] | 5 | 25 | > 40 |  |  |  |  |  |  |  | 
6 | CC(N)C(=O)OC(C)(C)Cc1ccc(F)cc1 (centres unmarked) [GEA 822] |  | 30 | > 40 |  |  |  |  |  |  |  | 
7 | CN(C)CCCN1c2ccccc2CCc2ccccc21 [Imipramine] | 15 | 24 | 6 | anticholinergic and causes anticholinergic symptoms such as dryness of the mouth, tremor, tachycardia and sweating | both mood elevating and psychomotor activating | about 3 weeks | 8 | inhibits the re-uptake mechanism of noradrenaline (NA) and 5-hydroxytryptamine (5-HT) | inhibits the re-uptake mechanism of noradrenaline (NA) | constantly potentiated dl-5-HTP | 
8 | CC(N)C(=O)OC(C)(C)Cc1ccc(Cl)cc1.Cl (centres unmarked) [GEA 654, 2-aminopropanoic acid 1-(4-chlorophenyl)-2-methyl-2-propylester hydrochloride] | 1 | 15 | > 40 |  |  |  | 63 |  |  |  | 70
